Experimental data taken from publication PMC11721022, “Standardized Chromatographic and Computational Approaches for Lipophilicity Analysis of Five Gliflozin Antidiabetic Drugs in Relation to Their Biological Activity” (Molecules, 2024).

Columns and labels:
[1] = HPLC lipophilicity (log kW, standardized to log PEXP); assay type: physicochemical
Description: All experiments were performed using an HPLC system equipped with a solvent delivery pump 515 and a UV/VIS detector 2487 from Waters UK Sales (Elstree, UK), a degasser 964 from Jasco Inc. (Easton, MD, USA), and LiChrospher RP18, RP8 and CN columns (125 × 4.0 mm, 5 µm) from Merck. For RP18 and RP8 stationary phases, acetonitrile was used in the range of 35–60% and methanol in the range of 55–80%. For CN adsorbent, acetonitrile was used in the range 30–55% and methanol in the range 45–70%. For all chromatographic systems, a 5% step change in the concentration of the organic modifier was applied (Table S2 in Supplementary Files). The flow for each mobile phase and each chromatographic run was 1 mL/min while detection was performed at 260 nm. The analyzed drugs and six reference substances were dissolved in methanol to obtain concentrations of 0.1 mg/mL and injected into the column in the volume of 20 µL. All experiments were performed in triplicate with a constant temperature of 23 ± 0.5 °C.
(§1) In our study, six standards of known lipophilicity in the range of 0.62–3.5 were used. For each standard, the same chromatographic procedures were performed as for the analyzed drugs, obtaining their RF or tR values. Then, the RM, RMW, log k, and log kW values were calculated using Equations (1)–(3). In the next step, correlations between the chromatographically obtained RMW or log kW values for these six standards and their literary log P values were calculated and expressed as respective calibration equations (Table 1). In addition, using these calibration equations, the chromatographic systems were evaluated by calculating the log PEXP values for the standards. […] From these calibration equations, the experimental log PTLC and log PHPLC (log PEXP) for the examined drugs were determined, using their RMW and log kW values.

[2] = TLC lipophilicity (RMW, standardized to log PEXP); assay type: physicochemical
Description: Plates (10 × 10 cm, 0.25 mm) pre-coated with silica gel RP18F254, RP8F254 and CNF254 from Merck were used as the stationary phases. The tested drugs and six reference substances were dissolved in methanol to obtain working solutions at a concentration of 2 mg/mL. Volumes of 5 µL of these working solutions were spotted onto the plates which were then developed at a distance of 9 cm in the horizontal developing chambers (Chromdes, Lublin, Poland). The ranges for the organic modifier concentration in water varied depending on the type of stationary phase and the modifier used. For RP18 and RP8 systems, acetonitrile in the range 35–60% and methanol in the range 60–85% were used. For CN systems, acetonitrile was used in the range of 40–60% while methanol was used in the range of 45–65%. […] All experiments were performed in triplicate with a constant temperature of 23 ± 0.5 °C.
as §1

[3] = Experimental lipophilicity from HPLC and TLC methods combined (standardization procedure); assay type: physicochemical; settings: mean over all HPLC and TLC systems
Description: as §1

[4] = tested on: SGLT2; experiment: SGLT2 inhibition (literature); assay type: biochemical; settings: pIC50 (SGLT2, literature) minus mean log PEXP
[5] = tested on: SGLT2; settings: Table 6; cited from earlier work
[6] = set-up: method as in PMID 30151080, PMID 34586753; settings: cited from earlier work
[7] = set-up: method as in PMID 30151080, PMID 34586753; settings: cited from earlier work; remark: listed apart in the source
[8] = set-up: method as in earlier work; settings: established lipophilicity of standards; cited from earlier work
[9] = LiChrospher CN HPLC column (125 × 4.0 mm, 5 µm), HPLC.CN/ACN (CN column, acetonitrile modifier)
[10] = LiChrospher CN HPLC column (125 × 4.0 mm, 5 µm), HPLC.CN/MeOH (CN column, methanol modifier)
[11] = LiChrospher RP18 HPLC column (125 × 4.0 mm, 5 µm), HPLC.RP18/MeOH
[12] = LiChrospher RP8 HPLC column (125 × 4.0 mm, 5 µm), HPLC.RP8/ACN
[13] = LiChrospher RP18 HPLC column (125 × 4.0 mm, 5 µm), HPLC.RP18/ACN
[14] = HPLC.CN/MeOH (CN column, methanol modifier)
[15] = LiChrospher RP8 HPLC column (125 × 4.0 mm, 5 µm), HPLC.RP8/MeOH

Row | Compound | log PEXP ([1]; HPLC.RP8/MeOH) | chromatographic logP [1, 9] | chromatographic logP [1, 10] | chromatographic logP [1, 11] | chromatographic logP ([2]; TLC.CN/ACN) | chromatographic logP ([2]; TLC.CN/MeOH) | chromatographic logP ([2]; TLC.RP8/ACN) | chromatographic logP ([2]; TLC.RP8/MeOH) | chromatographic logP ([2]; TLC.RP18/ACN) | chromatographic logP ([2]; TLC.RP18/MeOH) | log PEXP (Mean ± SD) [3] | LLE (lipophilic ligand efficiency) [4] | IC50 [5] [nM] | PB (protein-binding capacity) [6] [%] | CL (apparent total clearance) [7] [L/h] | VD (apparent volume of distribution) [7] [L] | chromatographic logP [1, 12] | chromatographic logP [1, 13] | T0.5 (half-life) [7] [h] | further results
1 | Cc1ccc([C@@H]2O[C@H](CO)[C@@H](O)[C@H](O)[C@H]2O)cc1Cc1ccc(-c2ccc(F)cc2)s1 [CANA, canagliflozin] | 4.43 | 3.73 | 4.91 | 4.55 | 2.4 | 5.86 | 3.55 | 4.07 | 3.47 | 4.43 | 3.99 ± 0.91 | 4.67 | 2.2 | 99 | 11.52 | 83.5 |  |  |  | log PEXP ([1]; HPLC.RP8/ACN): 3.23; log PEXP ([1]; HPLC.RP18/ACN): 3.28
2 | CCOc1ccc(Cc2cc([C@@H]3O[C@H](CO)[C@@H](O)[C@H](O)[C@H]3O)ccc2Cl)cc1 [DAPA, dapagliflozin] | 3.20 |  | 3.08 | 3.27 | 2.03 | 4.72 | 2.3 |  | 2.22 | 3.58 | 2.83 ± 0.78 | 6.12 |  | 91 | 12.42 | 118 | 2.11 | 2 |  | log PEXP ([1]; HPLC.CN/ACN (CN column, acetonitrile modifier)): 2.34; log PEXP ([2]; TLC.RP8/MeOH): 3.14
3 | OC[C@H]1O[C@@H](c2ccc(Cl)c(Cc3ccc(O[C@H]4CCOC4)cc3)c2)[C@H](O)[C@@H](O)[C@@H]1O [EMPA, empagliflozin] |  | 2.3 |  | 2.85 | 1.87 | 3.51 | 1.68 | 2.48 |  | 2.99 | 2.28 ± 0.73 | 6.23 |  | 86 | 10.6 | 73.8 |  | 1.35 | 12.4 | log PEXP [1, 14]: 2.66; log PEXP ([1]; HPLC.RP8/ACN): 1.70; chromatographic logP [1, 15]: 2.78; log PEXP ([2]; TLC.RP18/ACN): 1.30
4 | CCOc1ccc(Cc2cc([C@]34OC[C@](CO)(O3)[C@@H](O)[C@H](O)[C@H]4O)ccc2Cl)cc1 [ERTU, ertugliflozin] |  | 2.49 | 3.36 | 3.59 | 2.01 | 3.97 |  | 3.54 | 3.13 | 3.27 | 3.04 ± 0.61 | 6.02 | 0.87 | 94 | 10.68 | 85.5 | 2.4 |  | 11 | log PEXP ([1]; HPLC.RP18/ACN): 2.22; chromatographic logP [1, 15]: 3.49; log PEXP ([2]; TLC.RP8/ACN): 2.99
5 | Nc1ccccc1O [S1, 2-aminophenol] |  |  |  |  |  |  |  |  |  |  |  |  |  |  |  |  |  |  |  | log P [8]: 0.62
6 | c1ccc(Nc2ccccc2)cc1 [S6, diphenylamine] |  |  |  |  |  |  |  |  |  |  |  |  |  |  |  |  |  |  |  | log P [8]: 3.5
7 | CCOc1ccc(Cc2cc([C@@H]3O[C@H](SC)[C@@H](O)[C@H](O)[C@H]3O)ccc2Cl)cc1 [SOTA, sotagliflozin] | 4.43 | 3.59 |  |  | 2.32 | 4.61 | 4.08 | 4.26 | 3.69 | 4.5 | 3.94 ± 0.67 | 4.8 | 1.8 | 98 | 261 | 9392 | 3.28 | 3.4 | 21 | log PEXP [1, 14]: 4.57; log PEXP ([1]; HPLC.RP18/MeOH): 4.50
